Measured values from patent US8592468B2, “Bacterial thioredoxin reductase inhibitors and methods for use thereof” (Thioredoxin Systems AB, priority 2006, dated 2013).
≈ marks a conversion by molar mass, not a printed value. Like-named read-outs stand apart in the source and are kept apart here.

Key:
[1] = biological target: Mammalian TrxR (Bos taurus (Bovine), UniProt O62768); experiment: Compounds as substrates of mammalian (calf thymus) TrxR, NADPH consumption; type: biochemical
Protocol: (§1) FIGS. 6A and 6B show ebselen and its sulphur analogue, PZ25, as substrates of calf-thymus TrxR and PZ25 as substrate of E. coli TrxR. In FIG. 6A, 10 μM of ebselen (▴) and 10 μM of PZ25 (▪) were used as substrate of 25 nM calf thymus TrxR. In FIG. 6B, 10 μM of PZ25 was used as substrate for 10 nM calf thymus TrxR (◯) and 10 nM of E. coli TrxR (●). Reactions were started by adding enzymes in cuvettes containing 500 μl TE buffer with 100 μM NADPH, of which the consumption were followed by the changes of the absorption at 340 nm against identical blank without enzymes.
Ebselen diselenide (Δ) and PZ25 disulfide (◯) were reduced with 10 nM calf thymus TrxR, while PZ25 disulphide was reduced by 10 nM of E. coli TrxR (●). Reactions were started by adding enzymes to cuvettes containing 500 μl TE buffer with 100 μM NADPH and 16 μM compounds. The NADPH consumption was followed by the changes of the absorption at 340 nm against identical blank without enzymes.
(§2) The activity of the enzyme was determined at room temperature using an Ultrospec 3000 UV/Visual spectrophotometer (Amersham Biosciences). Measurements of TrxR activity from both calf thymus and E. coli were performed in a buffer containing 50 mM Tris-Cl, 1 mM EDTA, pH 7.5, generally with 100 μM NADPH and the indicated amount of the drugs. The enzyme-catalysed reactions were followed at 340 nm using the standard calculation of NADPH oxidation to NADP^+ with a molar extinction coefficient of 6200 M^−1 cm^−1 (32, 34). The conditions of the assay of bacterial thioredoxin reductase have been described (32, 34) using either 1 mM DTNB or 160 μM insulin as a substrate. In DTNB coupled assays, 240 μM NADPH and 1 mM DTNB were used in the TE buffer and formation of the TNB was measured at 412 nm, where TNB has an extinction coefficient of 13600 M^−1 cm^−1.

[2] = biological target: T1, E. coli TrxR (Escherichia coli (strain K12), UniProt P0A9P4); type: biochemical
T1 sequence (P0A9P4 2-321 limits assumed): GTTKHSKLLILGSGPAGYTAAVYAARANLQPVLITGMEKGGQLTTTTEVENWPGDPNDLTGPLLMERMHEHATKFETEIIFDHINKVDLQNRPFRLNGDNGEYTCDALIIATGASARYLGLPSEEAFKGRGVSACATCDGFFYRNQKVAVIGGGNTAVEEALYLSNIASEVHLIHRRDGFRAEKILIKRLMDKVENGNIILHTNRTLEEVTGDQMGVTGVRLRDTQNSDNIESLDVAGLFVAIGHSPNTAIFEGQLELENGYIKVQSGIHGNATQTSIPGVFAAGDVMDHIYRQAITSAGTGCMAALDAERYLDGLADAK
Protocol: as §1, with “In” for “FIGS. 6A and 6B show ebselen and its sulphur analogue, PZ25, as substrates of calf-thymus TrxR and PZ25 as substrate of E. coli TrxR. In”
Reactions were started by adding enzymes to cuvettes containing 500 μl TE buffer with 100 μM NADPH and 16 μM compounds. The NADPH consumption was followed by the changes of the absorption at 340 nm against identical blank without enzymes.
as §2, with “Measurements of TrxR activity from both calf thymus and E. coli were performed in a buffer containing 50 mM Tris-Cl, 1 mM EDTA, pH 7.5, generally with 100 μM NADPH and the indicated amount of the drugs.” left out
(§3) Further we examined the effect of ebselen in the reduction of disulphide by E. coli Trx and TrxR using both DTNB and insulin as substrates. […] FIGS. 4A and 4B show the effect of ebselen (4A) and ebselen diselenide (4B) on DTNB reduction by E. coli thioredoxin and thioredoxin reductase. Assays in semi-microcuvettes with 0.5 ml solution contained 0.24 mM NADPH, 1 mM DTNB in 50 mM Tris-Cl/1 mM EDTA, pH 7.5 buffer. (A) In the presence of 2 μM (grey filled points), 5 μM (white filled points) and 10 μM (black filled points) of E. coli Trx and 7.6 nM of E. coli TrxR with ebselen at concentrations of zero (squares), 0.5 μM (triangles), 1 μM (rhombus), and 2 μM (rounds), the increase in A412 was measured against a blank. (B) In the presence of 2 μM (grey filled points), 5 μM (white filled points) and 10 μM (black filled points) of E. coli Trx and 10 nM of E. coli TrxR, with ebselen diselenide at concentrations of zero (squares), 1 μM (triangles) and 2 μM (rounds), the increase in A412 was measured against a blank.

[3] = system: wild type DHB4 E. coli; experiment: Bacterial inhibition by ebselen derivates, MIC; settings: for MIC: Escherichia coli, DHB4E.COLI, 4 h, read-out: MIC for wild type DHB4 E. coli; for sensitivity of gshA^− or gor^− strains compared with wt strain: E. coli DHB4 strains; for MIC for wild type DHB4 E. coli: LB, 37° C., 4 hrs, OD600 below 10% of DMSO control
Protocol: (§5) E. coli DHB4 strains wt, gshA^−, gor^−, oxyR^− were cultured overnight in LB medium. […] OD 600 was detected and DMSO was used as the control. […] The data are the means of two experiments.

[4] = system: Gor^- DHB4 E. coli; experiment: Bacterial inhibition by ebselen derivates, MIC; settings: for MIC: Escherichia coli, 4 h, read-out: MIC for Gor^- DHB4 E. coli; for MIC for Gor^- DHB4 E. coli: LB, 37° C., 4 hrs, OD600 below 10% of DMSO control
Protocol: as §5

[5] = biological target: T1, E. coli TrxR; experiment: Measurement of IC50 of ebselen derivates for E. coli TrxR (DTNB assay); type: biochemical
Protocol: For screening of different classes of ebselen derivatives as inhibitors of E. coli TrxR, the compounds of different concentration (1-40 μM) were incubated for a minute with mixture containing 100 nM E. coli TrxR, 200 μM NADPH and 2 μM of E. coli Trx. Then 1 mM DTNB was added and the enzyme activity was followed by the initial linear increase at A412 for 5 minutes.
(§4) All the benzisoselenazol-3(2H)-one and bisbenzisoselenazol-3(2H)-one derivatives were tested as potential E. coli TrxR inhibitors by standard DTNB assay. IC50 values were calculated by following the activity of TrxR reducing DTNB by NADPH at 412 nm. The reactions were started by adding 1 mM DTNB to the mixture of 100 nM TrxR, 2 μM Trx, 240 μM NADPH, and different concentration of inhibitor (1-40 μM). […] The reactions were started by adding 6 nM TrxR at room temperature. Inhibition constants (Ki) for all the compounds were measured from Dixon plot (FIGS. 12A-12F), which plots 1/v versus [I] (v=A412/min, I=Inhibitor concentration, FIGS. 12A-12F). Measured IC50 and Ki values (Table 5) indicate that the compounds EbSe 6-9, 12-16 are potent inhibitors for E. coli TrxR. The presence of covalent bond between selenium and nitrogen is so important for the biological property of ebselen derivatives.

[6] = biological target: T1, E. coli TrxR; experiment: Measurement of Ki of ebselen derivates for E. coli TrxR (Dixon plot, DTNB assay); type: biochemical
Protocol: The detailed inhibition studies using 0.001-4 μM inhibitor were performed in quartz cuvettes and the assay mixture of 500 μL containing E. coli TrxR (6 nM), E. coli Trx (1 or 2 or 4 μM), NADPH (240 μM), and DTNB (1 mM using Zeiss or Ultrospec 3000 Uv-visible spectrophotometer. E. coli TrxR activities were subsequently determined using the standard DTNB assay.
as §4

[7] = biological target: T1, E. coli TrxR; experiment: Inhibition of E. coli TrxR reduction of Trx, DTNB coupled assay (Lineweaver-Burk); type: biochemical
Protocol: FIGS. 4A and 4B show the effect of ebselen (FIG. 4A) and ebselen diselenide (FIG. 4B) on DTNB reduction by E. coli thioredoxin and thioredoxin reductase. Assays were contained in 0.50 ml semi-microcuvettes containing 0.24 mM NADPH, 1 mM DTNB in 0.10 M Tris-Cl, pH 8.0, 1 mM EDTA. The increase in A412 was measured against a blank using 10 nM E. coli TrxR in the presence of 2 μM (grey filled points), 5 μM (white filled points), 10 μM (black filled points) E. coli Trx with 0 (squares), 0.5 μM (triangles), 1 μM (rhombus), 2 μM (rounds) of ebselen or ebselen diselenide.
(A) Ebselen concentrations were 0 μM (▴), 0.5 μM (∀), 1 μM (▪) and 2 μM (Δ). […] (B) Ebselen concentrations were 0 μM (▴), 1 μM (▪) and 2 μM (∀).
as §2, with “Measurements of TrxR activity from both calf thymus and E. coli were performed in a buffer containing 50 mM Tris-Cl, 1 mM EDTA, pH 7.5, generally with 100 μM NADPH and the indicated amount of the drugs.” left out
as §3

[8] = system: H. pylori strains; experiment: Inhibition of the growth of H. pylori by PZ-25 (ebsulfur); type: cell-based
[9] = biological target: H. pylori TrxR (Helicobacter pylori (strain ATCC 700392 / 26695) (Campylobacter pylori), UniProt P56431); experiment: Inhibition of H. pylori TrxR by ebsulfur, insulin reduction assay; type: biochemical; settings: 4, 20, and 40 μM
Chain of H. pylori TrxR (P56431 whole entry, looked up): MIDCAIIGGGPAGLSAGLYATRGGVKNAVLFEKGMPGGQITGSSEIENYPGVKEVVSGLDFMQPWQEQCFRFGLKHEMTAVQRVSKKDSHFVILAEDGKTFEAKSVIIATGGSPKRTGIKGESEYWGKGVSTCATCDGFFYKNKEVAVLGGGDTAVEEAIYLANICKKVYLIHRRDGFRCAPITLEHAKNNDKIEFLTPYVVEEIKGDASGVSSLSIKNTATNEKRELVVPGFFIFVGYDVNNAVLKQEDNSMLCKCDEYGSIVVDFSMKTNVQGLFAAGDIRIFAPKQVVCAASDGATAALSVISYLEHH
Protocol: H. pylori TrxR activity was followed by insulin reduction after 4 μM of H. pylori Trx addition, where a decrease in absorbance at 340 nm represents activity.

[10] = system: Staphylococcus aureus; settings: compared with PZ51; cited from earlier work
[11] = system: Mammalian TrxR; settings: from reference; cited from earlier work
[12] = biological target: E. coli Trx-(SH)2 (Escherichia coli (strain K12), UniProt P0AA25); settings: fluorescence spectroscopy; cited from earlier work
[13] = system: gshA^- DHB4 E. coli; experiment: Bacterial inhibition by ebselen derivates, MIC; settings: LB, 37° C., 4 hrs, OD600 below 10% of DMSO control
Protocol: as §5

[14] = 6 nM TrxR, Trx 1, 2 or 4 μM, Dixon plot, read-out: Ki for E. coli TrxR
[15] = 100 nM TrxR, 2 μM Trx, 1 mM DTNB, read-out: IC50 for E. coli TrxR

Chain of Mammalian TrxR (Bos taurus (Bovine), UniProt O62768) (O62768 whole entry, looked up): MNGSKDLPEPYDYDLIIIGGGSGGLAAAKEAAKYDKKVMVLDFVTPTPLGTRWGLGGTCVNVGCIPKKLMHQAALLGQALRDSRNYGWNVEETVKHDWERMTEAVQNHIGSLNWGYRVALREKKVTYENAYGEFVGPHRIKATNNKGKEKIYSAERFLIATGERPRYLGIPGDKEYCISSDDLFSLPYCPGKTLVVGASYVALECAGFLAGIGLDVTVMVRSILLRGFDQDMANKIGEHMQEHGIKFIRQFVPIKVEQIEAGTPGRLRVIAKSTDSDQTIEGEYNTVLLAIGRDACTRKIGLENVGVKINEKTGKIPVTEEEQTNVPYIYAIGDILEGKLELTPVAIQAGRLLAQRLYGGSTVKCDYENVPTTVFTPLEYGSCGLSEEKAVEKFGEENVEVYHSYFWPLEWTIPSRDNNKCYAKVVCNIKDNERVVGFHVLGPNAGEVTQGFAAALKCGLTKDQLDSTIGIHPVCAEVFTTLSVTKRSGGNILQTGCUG

Compound `O=C(Nc1ccccc1)c1ccccc1SSc1ccccc1C(=O)Nc1ccccc1` [PZ25 disulphide] has a Km [1] of 47 µM, a kcat [1] of 25 s⁻¹ and a kcat/KM [1] of 533000 M⁻¹ s⁻¹. For the same compound, the Km ([2]; E. coli TrxR) was 27.6 µM, the kcat ([2]; E. coli TrxR) was 1.67 s⁻¹ and the kcat/KM ([2]; E. coli TrxR) was 60500 M⁻¹ s⁻¹.
`O=c1c2ccccc2[se]n1-c1ccncc1` [EbSe 13] gave an MIC [3] of 45 µM (≈ 12.4 µg/mL) and an MIC [4] of 24 µM (≈ 6.6 µg/mL).
Compound `O=C(O)c1ccccc1-n1[se]c2ccccc2c1=O` [EbSe 9] has an IC50 [5] of 7.5 µM, a Ki [6] of 1.2 µM and an MIC [3] of 49 µM (≈ 15.6 µg/mL). For the same compound, the MIC [4] was 31 µM (≈ 9.86 µg/mL).
For `O=c1c2ccccc2[se]n1CCCn1[se]c2ccccc2c1=O` [EbSe 15], the Ki [6, 14] was 0.04 µM.
For `O=c1c2ccccc2sn1-c1ccccc1` [PZ25], the “inhibition of E. coli TrxR (in words)” value [7] was “not inhibitors”, the Km [1] was 2.5 µM and the kcat [1] was 23.33 s⁻¹. For the same compound, the kcat/KM [1] was 9.33e+06 M⁻¹ s⁻¹, the kcat ([2]; E. coli TrxR) was 11.7 s⁻¹ and the kcat/KM ([2]; E. coli TrxR) was 4.67e+06 M⁻¹ s⁻¹. For the same compound, the MIC ([8]; NCTC11637 strain) was 1.56 µg/mL (≈ 6.86 µM), the MIC ([8]; strain YS-16) was 0.39 µg/mL (≈ 1.72 µM) and the “H. pylori TrxR activity” value [9] was “inhibited”. For the same compound, the “antibacterial activity of the sulphur analogue” value [10] was “lost the antibacterial activity”.
For `O=c1c2ccccc2[se]n1CCn1[se]c2ccccc2c1=O` [EbSe 14], the “sensitivity of gshA^− or gor^− strains compared with wt strain” value [3] was “same sensitivity”, the MIC [3] was 23 µM (≈ 9.71 µg/mL) and the MIC [4] was 19 µM (≈ 8.02 µg/mL).
`O=C(O)c1ccc(-n2[se]c3ccccc3c2=O)cc1` [EbSe 10] gave an IC50 [5] of 15 µM.
In the case of `O=C(Nc1ccccc1)c1ccccc1[Se][Se]c1ccccc1C(=O)Nc1ccccc1` [ebselen diselenide], the “inhibition of E. coli TrxR (in words)” value [7] is reported as “strongly inhibited”, the Ki ([7]; Ki (competitive inhibitor of Trx reduction by E. coli TrxR), from Lineweaver-Burk slopes) is reported as 0.46 ± 0.05 µM and the Ki ([7]; read-out: Ki (competitive inhibitor of Trx reduction by E. coli TrxR), from Lineweaver-Burk slopes) is reported as 0.46 µM. The “oxidation of NADPH when directly added to E. coli TrxR and NADPH” value [2] was “no oxidations of NADPH”, the Km [11] was 40 µM and the kcat [11] was 1.32 s⁻¹. The kcat/KM [11] was 33000 M⁻¹ s⁻¹ and the “second-order rate constant of reaction with reduced E. coli Trx” value [12] was 1700 M⁻¹ s⁻¹.
With `Cc1cc(Cl)ccc1-n1[se]c2ccccc2c1=O` [EbSe 8] the MIC [3] was 47 µM (≈ 15.2 µg/mL) and the MIC [4] was 24 µM (≈ 7.74 µg/mL).
`O=c1c2ccccc2[se]n1-c1ccc(Cl)cc1` [EbSe 7] showed an MIC [3] of 34 µM (≈ 10.5 µg/mL) and an MIC [4] of 23 µM (≈ 7.1 µg/mL).
For `O=c1c2ccccc2[se]n1-c1ccc(Cl)cn1` [EbSe 11], the IC50 [5, 15] was > 40 µM, the “MIC for wild type DHB4 E. coli” value [3] was “No Inhibition” and the “MIC for gshA^- DHB4 E. coli” value [13] was “No Inhibition”. The “MIC for Gor^- DHB4 E. coli” value [4] was “No Inhibition”.
With `O=c1c2ccccc2[se]n1CCCCCCn1[se]c2ccccc2c1=O` [EbSe 16] the “sensitivity of gshA^− or gor^− strains compared with wt strain” value [3] was “same sensitivity”, the MIC [3] was 20 µM (≈ 9.57 µg/mL) and the MIC [4] was 35 µM (≈ 16.7 µg/mL).
For `O=c1c2ccccc2[se]n1-c1ncccc1[N+](=O)[O-]` [EbSe 12], the IC50 [5, 15] was 3 µM, the Ki [6, 14] was 0.25 µM and the “MIC for wild type DHB4 E. coli” value [3] was “No Inhibition”. The “MIC for gshA^- DHB4 E. coli” value [13] was “No Inhibition” and the “MIC for Gor^- DHB4 E. coli” value [4] was “No Inhibition”.
